Molecules are shown by their SMILES. Entries after “also recorded” stand apart in the source; their conditions may differ.

For experiment [1], the system named is breast cancer lines. Description: 3-BrPA sensitivity versus MCT1 protein level in breast cancer lines. It is filed as cell-based, human. As for the experimental part: (§1) Cell lines (5,000-20,000) were seeded in 96-well plates and treated with indicated amounts of 3-BrPA. After 3 days of treatment, CellTiter-Glo (Promega) and/or CyQuant (Invitrogen) were used to measure survival percentage for each concentration compared to untreated cells. FACS analysis with Annexin V and 7AAD staining was performed according to manufacturer's manual (BD Pharmingen).
(§2) Briefly, cells were rinsed twice in ice-cold PBS and harvested in a standard lysis buffer containing 50 mM Hepes, pH 7.4, 40 mM NaCl, 2 mM EDTA, 1.5 mM orthovanadate, 50 mM NaF, 10 mM pyrophosphate, 10 mM glycerophosphate, protease inhibitors (Roche) and 1% Triton-X-100. Proteins from total lysates were resolved by 8-12% SDS-PAGE, and analyzed by immunoblotting as described using anti-MCT1 (Millipore; Ab3540), anti-RPS6 and anti-raptor antibodies (1:1000)^50. For quantitation, ImageJ software was used and the signals were normalized using an equal loading control (RPS6/Raptor). Immunohistochemistry was performed on formalin-fixed paraffin embedded sections using a boiling Dako antigen retrieval method (Dako). A 1:500 dilution of the anti-MCT1 antibody was used for staining.

The test system of experiment [2] is parental KBM7 cells. Description: Luciferase-based ATP assay, parental KBM7 cells. It is filed as cell-based, human. The following applies: 30 min treatment. As for the experimental part: (§3) The bioenergetic profiles of KBM7 and MDA-MB-231 cells in response to 3-BrPA were determined using a Seahorse Bioscience XF24 Extracellular Flux Analyzer (Seahorse Bioscience). For the indicated experiments, 250,000 KBM7 or 40,000 MDA-MB-231 cells seeded in Seahorse tissue culture plates using unbuffered RPMI (10 mM Glucose). KBM7 cells were attached to the plates using CellTak (Clontech) one hour prior to the start of the experiment. For AUC (area under the curve) OCR and ECAR measurements, three consecutive readings were performed for each cell line. For experiments where 3-BrPA is used, after 3 consecutive readings, 50 μM 3-BrPA was injected through port A and ECAR and OCAR levels were measured. Lactate production was measured as described previously^50. For ATP assays, 20,000 cells were seeded and treated for 30 min with indicated amounts of 3-BrPA and ATP levels were determined using a luciferase-based assay (Promega). For metabolite measurements, 10 million wild type and MCT1 null KBM7 cells were cultured for 1 hour in presence of 50 μM 3-BrPA before metabolite extraction. Then, cells were rapidly washed three times with cold PBS, and then metabolites were extracted by addition of 80% ice-cold methanol followed after incubation on dry ice for 15 min. Endogenous metabolite profiles were obtained using LC-MS as described^51. Metabolite levels (n=3) were normalized to cell number.

The test system of experiment [3] is glyceraldehyde phosphate dehydrogenase (GAPDH). Put plainly: LC-MS metabolite profiling, wild type relative to MCT1-null KBM7 cells. The class given is cell-based, human. As for the experimental part: as §3
Experiment [4] has as its system MCT1-null cells. Put plainly: 14C-3-BrPA uptake assay, MCT1-null KBM7 cells. It is filed as cell-based, human. The following applies: MCT1-null compared to parental KBM7 cells. As for the experimental part: Wild type KBM7 or MCT1-null cells were seeded in HBSS and exposed for up to 20 minutes to 100 μM ^14C-labeled 3-BrPA (6.8 mCi/mmole) (Moravek) with or without competitor molecules like 3-BrPA, Pyruvate, L-Lactate and D-Lactate. Cells were washed with cold HBSS, lysed in a NaOH buffer, and uptake measured using a liquid scintillation counter.

Experiment [5] concerns BT-20 cells. Put plainly: Cell survival assay, BT-20. The class given is cell-based, human. As for the experimental part: as §1
The subject of experiment [6] is HCC-70 cells. Description: Cell survival assay, HCC-70. The following applies: HCC-70, increased MCT1 level. The class given is cell-based, human. As for the experimental part:
as §1
(§4) 15 cell lines (BT-474, BT-549, CAK1-1, CAL-51, HCC-70, HS578T, JURKAT, MDA-MB-157, MDA-MB-231, MDA-MB-453, MDA-MB-468, PC-3, SK-BR-3, T47D, ZR-75-1) were treated with 3-BrPA (0-300 μM). After 3 days, cell viability was quantified via CellTiter-Glo assay and an IC50 from the resulting dose-response curve was interpolated using a nonlinear regression model. Transcriptome-wide normalized mRNA levels from gene expression profiling experiments performed on the Affymetrix Human Genome U133 Plus 2.0 chip were obtained from the CCLE for all 15 cell lines. The mRNA expression pattern across all 15 samples for each of the genes was then correlated with the IC50 values. Similar correlation analysis was performed using OCR/ECAR values for each cell line.

Experiment [7] deals with MCT1-null KBM7 cells. Description: Cell survival assay, MCT1-null KBM7 clones. It is filed as cell-based, human. As for the experimental part: (§5) A haploid cell genetic screen with 3-BrPA was performed using 100 million mutagenized KBM7 cells as described previously^29. Mutagenized haploid KBM-7 cells were exposed to 50 μM 3-BrPA for 3 weeks. Surviving clones were harvested and genomic DNA was isolated and insertions were amplified. The sequences flanking retroviral insertion sites were mapped to the human genome using inverse PCR followed by Ilium in a sequencing. Genomic regions with a high density of insertions were identified using the proximity index for a given insertion. Additionally, the statistical enrichment of insertions at a given locus in the selected population was calculated by comparing the number of inactivating insertions to those in the untreated control dataset via a Fisher's Exact Test. Individual clones were isolated among 50 different clones and genomic DNA for individually selected clones were isolated using a genomic DNA isolation kit (Qiagen). Genomic insertions were identified by inverse PCR and subsequent sequencing as described previously^24.
(§6) Cell lines (5,000-20,000) were seeded in 96-well plates and treated with indicated amounts of 3-BrPA. After 3 days of treatment, CellTiter-Glo (Promega) and/or CyQuant (Invitrogen) were used to measure survival percentage for each concentration compared to untreated cells. […]

Experiment [8] concerns SK-BR-3 cells. Description: Cell survival assay, SK-BR-3. The class given is cell-based, human. As for the experimental part: as §1, §4
Experiment [9] relates to KBM7 cells. Put plainly: Cell survival assay, wild type (parental) KBM7 cells. The class given is cell-based, human. The following applies: 50 μM, 3 days of treatment. As for the experimental part: as §5, §6
For experiment [10], the system named is MDA-MB-231 cells. Description: 14C-3-BrPA uptake, parental and MCT1-overexpressing MDA-MB-231 cells. The class given is cell-based, human. The following applies: MCT1-overexpressing vs parental MDA-MB-231.
Experiment [11] concerns BT-549 cells. Put plainly: Cell survival assay, BT-549. It is filed as cell-based, human. As for the experimental part: as §1, §4
For experiment [12], the system named is AMPK and ACC phosphorylation. Description: Immunoblot of AMPK and ACC phosphorylation, MCT1-null KBM7 cells. It is filed as cell-based, human. The following applies: 50 μM 3-BrPA. As for the experimental part:
as §2
Background: Immunoblotting shows a protein as a band on a membrane.

The subject of experiment [13] is ER negative cells. Put plainly: 3-BrPA sensitivity of ER negative tumor cell lines. The class given is cell-based. The following applies: MCT1 expressed at high levels.
The mark [14] stands for this setting: wild type relative to MCT1-null KBM7, 50 μM, 1 hour, LC-MS.

As for `O=C(O)C(=O)CBr` [3-BrPA, 3-bromopyruvic acid], the “sensitivity to 3-BrPA” value in experiment [1] (breast cancer lines with high MCT1 protein levels) was “sensitive”; in experiment [1] (breast cancer lines with low to no MCT1), “resistant to even high concentrations”; in experiment [5] (BT-20, increased MCT1 level), “sensitive”; in experiment [6], “sensitive”; in [8] (SK-BR-3, low MCT1 level), “resistant”; in [11] (BT-549, increased MCT1 level) it was “sensitive”. Besides, the “sensitivity to 3-BrPA” value in experiment [13] is reported as “highly sensitive”. Besides, the “total ATP levels” value in [2] is listed as “substantial decrease”. Moreover, the “intermediates of the pentose phosphate pathway” value in [3] (wild type KBM7, 50 μM, 1 hour, LC-MS) is given as “accumulated intermediates of the pentose phosphate pathway”. Moreover, in experiment [3] (setting [14]), the “glycolytic intermediates after glyceraldehyde 3-phosphate” value is on record as “depletion of those that come after”. Moreover, the “glycolytic intermediates preceding glyceraldehyde 3-phosphate” value in experiment [3] (setting [14]) was “accumulation of the glycolytic intermediates that precede glyceraldehyde 3-phosphate”. The “cause of anti-glycolytic effects from metabolite profiling” value in [3] (wild type vs MCT1-null KBM7 metabolite profiling) was “strongly implicates GAPDH inhibition”. Besides, the “uptake of 14C-labeled 3-BrPA” value in experiment [4] is “did not take up”. The “sensitivity to 3-BrPA with partial suppression of MCT1 by RNAi” value in experiment [5] (BT-20 expressing shRNAs targeting MCT1) and in experiment [11] (BT-549 expressing shRNAs targeting MCT1) was “sufficient to confer resistance” in each case. Also, in experiment [7] (MCT1-null KBM7 cells with exogenous MCT1), the “sensitivity to 3-BrPA after re-expression of MCT1” value is on record as “nearly completely restored their sensitivity”. Besides, in experiment [7] (MCT1-null KBM7 clones (Clone A and B), 50 μM, 3 days), the “resistance to 3-BrPA” value is on record as “completely resistant”. For the same compound, the “sensitivity to 3-BrPA with stable expression of MCT1” value in [8] (SK-BR-3 stably expressing MCT1 cDNA) is given as “sufficient to sensitize”. Also, the “sensitivity to 3-BrPA (cell death)” value in [9] is recorded as “induce cell death accompanied by caspase-3 activation; also recorded: sensitive”. Moreover, the “14C-3-BrPA uptake with MCT1 expression” value in experiment [10] is “enhance”. The “sensitivity to 3-BrPA with suppression of GAPDH expression by RNAi” value in experiment [11] (BT-549 expressing shRNA targeted to GAPDH vs GFP control) is reported as “markedly increased the sensitivity”. The “AMPK and ACC phosphorylation, markers of energy stress” value in experiment [12] is recorded as “did not affect”.

The values above are taken from patent publication US20140142180A1, “METHODS OF TREATING TUMORS HAVING ELEVATED MCT1 EXPRESSION” (Whitehead Institute for Biomedical Research, priority 2012, published 2014).
